According to patent US20220071961A1, “Dosing Regimen of Bicyclic Substituted Pyrazolone Azo Derivative” (Jiangsu Hengrui Medicine CO., LTD., priority 2019, published 2022):
Like-named read-outs stand apart in the source and are kept apart here.

Experiment: Effect of different intervals between administration and a meal on pharmacokinetic parameters (three-period crossover, single oral dose)
Format: in vivo, human
Details: single oral 7.5 mg; for AUC(0-t) / AUC / Cmax / MRT / Tmax / Vd/F / half-life: male, human, plasma, po, 7.5 mg; for MRT: read-out: MRT Geomean (% CVb); for Tmax: read-out: Tmax Median; for Vd/F: read-out: Vz/F Geomean (% CVb)
Description: Embodiment 1: Study on an effect of different intervals between the administration and a meal on pharmacokinetic parameters of a compound represented by Formula I
Diethanolamine salt tablets of the compound represented by Formula I, with specifications of 2.5 mg/table and 5 mg/tablet.
15 healthy adult male subjects were recruited for the trial. They were randomly divided into three trial groups which correspond to three dosing sequences, i.e. ABC, BCA and CAB. A cleaning period is 10 days.
Group A: every subject orally took the test products (one T1: 2.5 mg/tablet and one T2: 5 mg/tablet) once on an empty stomach with 240 mL of room temperature water on the morning of the test. […] They were not allowed to drink water within 1 h before administration and 1 h after administration, but were allowed to drink water as needed for the rest time.
Group B: every subject orally took the test products (one T1: 2.5 mg/tablet and one T2: 5 mg/tablet) once on an empty stomach with 240 mL of room temperature water on the morning of the test. They ate high-fat and high-calorie standard meals 1 h after administration, needed to stagger the timing of the breakfast and the blood sampling, and needed to finish the breakfast within 30 min. They were not allowed to drink water within 1 h before administration and 1 h after administration, but were allowed to drink water as needed for the rest time.
Group C: every subject orally took the test products (one T1: 2.5 mg/tablet and one T2: 5 mg/tablet) once on an empty stomach with 240 mL of room temperature water on the morning of the test. They ate high-fat and high-calorie standard meals 2 h after administration, needed to stagger the timing of the breakfast and the blood sampling, and needed to finish the breakfast within 30 min. They were not allowed to drink water within 1 h before administration and 1 h after administration, but were allowed to drink water as needed for the rest time.
The high-fat meal: calories: 800 to 1,000 kcal, composed of 150 kcal of protein, 250 kcal of carbohydrates and 500 to 600 kcal of fats, wherein about 50% of the calories come from the fats. The ingredients and proportions of the standard meals needed to be consistent in each test period. The specific administration sequences are shown in a table below. An effect of food on the medicine was analyzed by sampling blood at fixed time points before and after administration and measuring vital signs.
In the test, there were Group A (without a breakfast after administration), Group B (with a high-fat and high-calorie standard meal 1 h after administration) and Group C (with a high-fat and high-calorie standard meal 2 h after administration) which correspond to threes administration sequences, i.e. ABC, BCA and CAB. A non-compartmental model (NCA) of WinNonlin 7.0 version was used to calculate PK parameters according to the actual sampling time, and software of SAS 9.4 version was used to list and make descriptive statistical analysis on the PK parameters. Results of descriptive statistical analysis of the PK parameters of the compound represented by Formula I of the subjects in the groups (Group A, Group B and Group C) with different intervals between the administration and a meal are shown in Table 2.
A mixed-effects model was used to perform analysis of variance (ANOVA) on the PK parameters (Cmax, AUC0-t and AUC0-τ), which are subjected to natural log conversion, of the subjects in the groups with different intervals between administration and a meal by using the software of SAS 9.4 version.

[1] = Group B vs Group A (meal 1 h after administration vs no food)
[2] = Group B vs Group C (meal 1 h vs meal 2 h after administration)
[3] = Group C vs Group A (meal 2 h after administration vs no food)
[4] = food 1 h after administration relative to food 2 h after administration
[5] = food 1 h after administration relative to no food after administration
[6] = food 2 h after administration relative to no food after administration
[7] = Group A, without a breakfast after administration, N = 15
[8] = Group B, high-fat meal 1 h after administration, N = 14
[9] = Group C, high-fat meal 2 h after administration, N = 14

## CC1=NN(c2ccc3c(c2)CCCC3)C(=O)/C1=N\Nc1cccc(-c2ccc(C(=O)O)o2)c1O [compound represented by Formula I]
[1]
  AUC0-t GeoLSM Ratio: 23.65%
  AUC0-ē GeoLSM Ratio: 25.37%
  Cmax GeoLSM Ratio: 44.01%
[2]
  AUC0-t GeoLSM Ratio: 66.10%
  AUC0-ē GeoLSM Ratio: 65.76%
  Cmax GeoLSM Ratio: 78.12%
[3]
  AUC0-t GeoLSM Ratio: 35.78%
  AUC0-ē GeoLSM Ratio: 38.57%
  Cmax GeoLSM Ratio: 56.33%
[4]
  AUC0-τ reduced by: ~34%
  Cmax reduced by: about 22%
[5]
  AUC0-τ reduced by: ~75%
  Cmax reduced by: about 56%
[6]
  AUC0-τ reduced by: ~61%
  Cmax reduced by: about 44%
Group A, no food after administration, n 15, mixed-effects ANOVA, read-out: AUC0-t GeoLSM (geometric least squares mean)
  AUC(0-t): 857 ng·h/mL
Group A, no food after administration, n 15, mixed-effects ANOVA, read-out: AUC0-ē GeoLSM (geometric least squares mean)
  AUC: 929 ng·h/mL
Group A, no food after administration, n 15, mixed-effects ANOVA, read-out: Cmax GeoLSM (geometric least squares mean)
  Cmax: 35.1 ng/mL
Group A, without a breakfast after administration, N = 15, read-out: AUC0-t Geomean (% CVb)
  AUC(0-t): 857 ng·h/mL
Group A, without a breakfast after administration, N = 15, read-out: AUC0-t Mean SD
  AUC(0-t): 1040 ng·h/mL
Group A, without a breakfast after administration, N = 15, read-out: AUC0-ē Geomean (% CVb)
  AUC: 929 ng·h/mL
Group A, without a breakfast after administration, N = 15, read-out: AUC0-ē Mean SD
  AUC: 1110 ng·h/mL
Group A, without a breakfast after administration, N = 15, read-out: Cmax Geomean (% CVb)
  Cmax: 35.1 ng/mL
Group A, without a breakfast after administration, N = 15, read-out: Cmax Mean SD
  Cmax: 39.2 ng/mL
[7]
  MRT: 32.1 h
  Tmax: 7 h
  Vd/F: 308 L
  % AUCex Geomean (% CVb): 6.62%
  CL/F Geomean (% CVb): 8.0740 L/h
  CL/F Mean SD: 10.4506 L/h
  ≅z Geomean (% CVb): 0.0263 h⁻¹
Group A, without a breakfast after administration, N = 15, read-out: t1/2 Geomean (% CVb) (converted)
  half-life: 26.4 h
Group A, without a breakfast after administration, N = 15, read-out: t1/2 Mean SD (converted)
  half-life: 29.3 h
Group B, high-fat and high-calorie standard meal 1 h after administration, N = 14
  Tmax: 2 h
Group B, high-fat meal 1 h after administration, N = 14, read-out: AUC0-t Geomean (% CVb)
  AUC(0-t): 202 ng·h/mL
Group B, high-fat meal 1 h after administration, N = 14, read-out: AUC0-t Mean SD
  AUC(0-t): 314 ng·h/mL
Group B, high-fat meal 1 h after administration, N = 14, read-out: AUC0-ē Geomean (% CVb)
  AUC: 235 ng·h/mL
Group B, high-fat meal 1 h after administration, N = 14, read-out: AUC0-ē Mean SD
  AUC: 347 ng·h/mL
Group B, high-fat meal 1 h after administration, N = 14, read-out: Cmax Geomean (% CVb)
  Cmax: 15.4 ng/mL
Group B, high-fat meal 1 h after administration, N = 14, read-out: Cmax Mean SD
  Cmax: 21.1 ng/mL
[8]
  MRT: 17.4 h
  Vd/F: 531 L
  % AUCex Geomean (% CVb): 11.39%
  CL/F Geomean (% CVb): 31.8657 L/h
  CL/F Mean SD: 52.4396 L/h
  ≅z Geomean (% CVb): 0.0600 h⁻¹
Group B, high-fat meal 1 h after administration, N = 14, read-out: t1/2 Geomean (% CVb) (converted)
  half-life: 11.6 h
Group B, high-fat meal 1 h after administration, N = 14, read-out: t1/2 Mean SD (converted)
  half-life: 13.1 h
Group B, meal 1 h after administration, n 14, mixed-effects ANOVA, read-out: AUC0-t GeoLSM (geometric least squares mean)
  AUC(0-t): 203 ng·h/mL
Group B, meal 1 h after administration, n 14, mixed-effects ANOVA, read-out: AUC0-ē GeoLSM (geometric least squares mean)
  AUC: 236 ng·h/mL
Group B, meal 1 h after administration, n 14, mixed-effects ANOVA, read-out: Cmax GeoLSM (geometric least squares mean)
  Cmax: 15.5 ng/mL
Group C, high-fat and high-calorie standard meal 2 h after administration, N = 14
  Tmax: 5.01 h
Group C, high-fat meal 2 h after administration, N = 14, read-out: AUC0-t Geomean (% CVb)
  AUC(0-t): 303 ng·h/mL
Group C, high-fat meal 2 h after administration, N = 14, read-out: AUC0-t Mean SD
  AUC(0-t): 547 ng·h/mL
Group C, high-fat meal 2 h after administration, N = 14, read-out: AUC0-ē Geomean (% CVb)
  AUC: 355 ng·h/mL
Group C, high-fat meal 2 h after administration, N = 14, read-out: AUC0-ē Mean SD
  AUC: 591 ng·h/mL
Group C, high-fat meal 2 h after administration, N = 14, read-out: Cmax Geomean (% CVb)
  Cmax: 19.6 ng/mL
Group C, high-fat meal 2 h after administration, N = 14, read-out: Cmax Mean SD
  Cmax: 28.6 ng/mL
[9]
  MRT: 21.4 h
  Vd/F: 460 L
  % AUCex Geomean (% CVb): 10.57%
  CL/F Geomean (% CVb): 21.1107 L/h
  CL/F Mean SD: 42.1126 L/h
  ≅z Geomean (% CVb): 0.0459 h⁻¹
Group C, high-fat meal 2 h after administration, N = 14, read-out: t1/2 Geomean (% CVb) (converted)
  half-life: 15.1 h
Group C, high-fat meal 2 h after administration, N = 14, read-out: t1/2 Mean SD (converted)
  half-life: 18.6 h
Group C, meal 2 h after administration, n 14, mixed-effects ANOVA, read-out: AUC0-t GeoLSM (geometric least squares mean)
  AUC(0-t): 307 ng·h/mL
Group C, meal 2 h after administration, n 14, mixed-effects ANOVA, read-out: AUC0-ē GeoLSM (geometric least squares mean)
  AUC: 358 ng·h/mL
Group C, meal 2 h after administration, n 14, mixed-effects ANOVA, read-out: Cmax GeoLSM (geometric least squares mean)
  Cmax: 19.8 ng/mL
